The values below are quoted from earlier work in US20080227813A1, “Pharmaceutical compositions and methods for treating diseases associated with neurodegeneration” (priority 2006, published 2008).

This data set has as its system patients suffering from ALS. Particulars: riluzole alone, previous studies; cited from earlier work.

Turning to `Nc1nc2ccc(OC(F)(F)F)cc2s1` [riluzole, Riluzole], the “effect on VC” value was “failed to demonstrate any effect”.
